PubChem BioAssay AID1259408 (Genetic Toxicology Data Bank (GENE-TOX), 2018)
Active and inactive are the calls of the source. How the calls were made is not given here.

Tested on: GENE-TOX genotoxicity assays, various organisms and cells
Assay: GENE-TOX mutagenicity studies
Conditions: for call: Assay Type: In vivo carcinogenicity studies
[1] = Species/Cell Type: Salmonella typhimurium (one or more of the five standard strains: TA98, TA100, TA1535, TA1537, and TA1538), Assay Type: Histidine reverse gene mutation, Ames assay, Assay Code: SAL+, Evaluation Type: Evaluation A (Pre-1980)
[2] = Species/Cell Type: Human diploid fibroblasts, Assay Type: Unscheduled DNA synthesis (UDS) in vitro, DNA effects, Assay Code: UDH+, Evaluation Type: Evaluation A (Pre-1980)
[3] = Species/Cell Type: Nonhuman, Assay Code: CCG+L, Evaluation Type: Evaluation A (Pre-1980)
[4] = Species/Cell Type: Salmonella typhimurium (one or more of the five standard strains: TA98, TA100, TA1535, TA1537, and TA1538), Assay Type: Histidine reverse gene mutation, Ames assay, Assay Code: SALT, Evaluation Type: Evaluation A (Pre-1980)
[5] = Species/Cell Type: Drosophila melanogaster, Assay Type: Sex-linked recessive lethal gene mutation, Assay Code: SRL+, Evaluation Type: Evaluation A (Pre-1980)
[6] = Species/Cell Type: Saccharomyces cerevisiae, Assay Type: Mitotic recombination or gene conversion, Assay Code: YEC+, Evaluation Type: Evaluation A (Pre-1980)
[7] = Species/Cell Type: Neurospora crassa, Assay Type: Aneuploidy, chromosome aberrations, Assay Code: NEN-, Evaluation Type: Evaluation A (Pre-1980)
[8] = Species/Cell Type: Saccharomyces cerevisiae, Assay Type: Reverse gene mutation, Assay Code: YER+, Evaluation Type: Evaluation A (Pre-1980)
[9] = Species/Cell Type: Bacillus subtilis (H17 vs M45), Assay Type: Rec-assay, spot test, DNA effects (bacterial DNA repair), Assay Code: REWT, Evaluation Type: Evaluation A (Pre-1980)
[10] = Species/Cell Type: Escherichia coli polA (W3119 vs P3478), Assay Type: Rec-assay, DNA effects (bacterial DNA repair), Assay Code: RE1T, Evaluation Type: Evaluation A (Pre-1980)
[11] = Species/Cell Type: Salmonella typhimurium (one or more of the five standard strains: TA98, TA100, TA1535, TA1537, and TA1538), Assay Type: Histidine reverse gene mutation, Ames assay, Assay Code: SAL+*, Activation: With metabolic activation, Evaluation Type: Evaluation A (Pre-1980)

## Cc1ccc(C2CO2)cc1 (configuration not stated)
Species/Cell Type: Escherichia coli WP2 UVRA, Assay Type: Tryptophan reverse gene mutation, Assay Code: WPU+D, Dose Response: With dose response, Evaluation Type: Evaluation A (Pre-1980)
  mutagenic call: active; positive
Species/Cell Type: Human lymphocytes, Assay Type: Sister-chromatid exchange (SCE) in vitro, Assay Code: SCL+, Evaluation Type: Evaluation B (Post-1980)
  mutagenic call: active; positive
Species/Cell Type: Human, Assay Type: Sister-chromatid exchange (SCE) in vitro, Assay Code: SC1+, Evaluation Type: Evaluation B (Post-1980)
  mutagenic call: active; positive
[1]
  mutagenic call: active; positive

## CC(=O)N(O)c1ccc2c(ccc3ccccc32)c1
[2]
  mutagenic call: active; positive
[3]
  call: active; positive

## C[C@]12CC[C@H]3[C@@H](CCC4=CC(=O)CC[C@@]43C)[C@@H]1CC[C@@H]2OC(=O)CCC1CCCC1
Species/Cell Type: Human, Sex: Male, Assay Type: Sperm morphology, Assay Code: SPH+, Evaluation Type: Evaluation A (Pre-1980)
  mutagenic call: active; positive

## Cc1ccc(N2CC[N+](C)([O-])CC2)c2c(=O)c3ccc(Cl)cc3sc12
[4]
  mutagenic call: no conclusion

## Cc1c2ccccc2c(C)c2c1c(O)c(O)c1ccccc12
Species/Cell Type: Chinese hamster lung (V79) cells, Assay Type: Forward gene mutation at the HPRT or ouabain locus, Assay Code: V79-*, Activation: With metabolic activation, Evaluation Type: Evaluation A (Pre-1980)
  mutagenic call: inactive; negative
Species/Cell Type: Nonhuman, Assay Code: CCGT, Evaluation Type: Evaluation A (Pre-1980)
  call: no conclusion

## CS(=O)(=O)OCCO
Species/Cell Type: Arabidopsis species, Assay Type: Gene mutation, Assay Code: ARM+D, Dose Response: With dose response, Evaluation Type: Evaluation A (Pre-1980)
  mutagenic call: active; positive
Species/Cell Type: Hordeum vulgare (barley), Assay Type: Chromosome aberrations, Assay Code: HOC+D, Dose Response: With dose response, Evaluation Type: Evaluation A (Pre-1980)
  mutagenic call: active; positive

## CN(C)N=Nc1cccnc1
[5]
  mutagenic call: active; positive
Species/Cell Type: Mammalian polychromatic erythrocytes, Assay Type: Micronucleus test, chromosome aberrations, Assay Code: MNT+, Evaluation Type: Evaluation A (Pre-1980)
  mutagenic call: active; positive
Species/Cell Type: Saccharomyces cerevisiae, Assay Type: Forward and reverse gene mutation, mitotic recombination and gene conversion, host-mediated assay, Assay Code: HME+, Evaluation Type: Evaluation A (Pre-1980)
  mutagenic call: active; positive
[6]
  mutagenic call: active; positive

## CC1CN1P(=O)(Cc1ccccc1)N1CC1C (configuration not stated)
[5]
  mutagenic call: active; positive

## CNc1ccc(O)cc1
Species/Cell Type: Allium cepa, Assay Type: Chromosome aberrations, Assay Code: ALCT, Evaluation Type: Evaluation A (Pre-1980)
  mutagenic call: no conclusion
[7]
  mutagenic call: inactive; negative

## COc1cc2cc3c4cc(OC)c(OC)cc4cc[n+]3c(C)c2cc1OC (tested in a mixture with another compound)
[4]
  mutagenic call: no conclusion

## CC(=O)ONC(=O)c1ccc2ccccc2c1
Species/Cell Type: Nonhuman, Assay Type: Sister-chromatid exchange (SCE) in vitro, Assay Code: SC2+D, Dose Response: With dose response, Evaluation Type: Evaluation B (Post-1980)
  mutagenic call: active; positive

## O=C(O)CNC(=O)c1ccccc1
Species/Cell Type: Escherichia coli WP2, Assay Type: Tryptophan reverse gene mutation, Assay Code: WP2-*, Activation: With metabolic activation, Evaluation Type: Evaluation A (Pre-1980)
  mutagenic call: inactive; negative
Species/Cell Type: Escherichia coli WP2 UVRA, Assay Type: Tryptophan reverse gene mutation, Assay Code: WPU-*, Activation: With metabolic activation, Evaluation Type: Evaluation A (Pre-1980)
  mutagenic call: inactive; negative

## OCC(O)CCl (configuration not stated)
Species/Cell Type: Rat, Sex: Male, Assay Type: Sperm morphology, Assay Code: SPAT, Evaluation Type: Evaluation A (Pre-1980)
  mutagenic call: no conclusion
Species/Cell Type: Rodents, Sex: Male, Assay Type: Dominant lethal test, Assay Code: DLT-, Evaluation Type: Evaluation A (Pre-1980)
  mutagenic call: inactive; negative

## c1cncc([C@@H]2CCCCN2)c1
Species/Cell Type: Nonhuman, Assay Type: Sister-chromatid exchange (SCE) in vitro, Assay Code: SC2T, Evaluation Type: Evaluation B (Post-1980)
  mutagenic call: no conclusion

## CCN(CCCl)CCCNc1c2ccc(Cl)cc2nc2ccc(OC)cc12
Species/Cell Type: Chinese hamster lung (V79) cells, Assay Type: Forward gene mutation at the HPRT or ouabain locus, Assay Code: V79+, Evaluation Type: Evaluation A (Pre-1980)
  mutagenic call: active; positive
Species/Cell Type: Chinese hamster ovary (CHO) cells, Assay Type: Forward gene mutation at the HPRT locus, Assay Code: CHO+D, Dose Response: With dose response, Evaluation Type: Evaluation A (Pre-1980)
  mutagenic call: active; positive
[5]
  mutagenic call: active; positive
Species/Cell Type: Neurospora crassa, Assay Type: Forward gene mutation, Assay Code: NEF+, Evaluation Type: Evaluation A (Pre-1980)
  mutagenic call: active; positive
Species/Cell Type: Neurospora crassa, Assay Type: Reverse gene mutation, Assay Code: NER+, Evaluation Type: Evaluation A (Pre-1980)
  mutagenic call: active; positive
[3]
  call: active; positive
Species/Cell Type: Rodents, Sex: Male, Assay Type: Dominant lethal test, Assay Code: DLTT, Evaluation Type: Evaluation A (Pre-1980)
  mutagenic call: no conclusion
Species/Cell Type: Saccharomyces cerevisiae, Assay Type: Forward gene mutation, Assay Code: YEF+, Evaluation Type: Evaluation A (Pre-1980)
  mutagenic call: active; positive
[6]
  mutagenic call: active; positive
Species/Cell Type: Saccharomyces cerevisiae, Assay Type: Mitotic recombination or gene conversion, Assay Code: YEH+, Evaluation Type: Evaluation A (Pre-1980)
  mutagenic call: active; positive
[8]
  mutagenic call: active; positive
[1]
  mutagenic call: active; positive
Species/Cell Type: Vicia faba, Assay Type: Chromosome aberrations, Assay Code: VIC+D, Dose Response: With dose response, Evaluation Type: Evaluation A (Pre-1980)
  mutagenic call: active; positive

## O=C1OC2(c3ccc(O)cc3Oc3cc(O)ccc32)c2ccccc21
[9]
  mutagenic call: no conclusion

## CCNC1(c2ccccc2)CCCCC1
Species/Cell Type: Syrian hamster embryo (SA7/SHE) cells, Assay Type: Cell transformation, viral enhanced, Assay Code: CT7+, Evaluation Type: Evaluation A (Pre-1980)
  mutagenic call: active; positive

## CCN(CC)CCOC(=O)c1ccc(N)cc1
[10]
  mutagenic call: no conclusion
[4]
  mutagenic call: no conclusion

## O=P(O)(O)Oc1c(Br)cc(Br)cc1-c1cc(Br)cc(Br)c1O
Species/Cell Type: Mammalian polychromatic erythrocytes, Assay Type: Micronucleus test, chromosome aberrations, Assay Code: MNTT, Evaluation Type: Evaluation B (Post-1980)
  mutagenic call: no conclusion

## COc1cc([C@@H]2c3cc4c(cc3[C@@H](O[C@@H]3O[C@@H]5CO[C@@H](c6cccs6)O[C@H]5[C@H](O)[C@H]3O)[C@H]3COC(=O)[C@H]23)OCO4)cc(OC)c1O
Species/Cell Type: Chinese hamster ovary (CHO) cells, Assay Type: Forward gene mutation at the HPRT locus, Assay Code: CHO+, Evaluation Type: Evaluation B (Post-1980)
  mutagenic call: active; positive
Species/Cell Type: Nonhuman, Assay Type: Sister-chromatid exchange (SCE) in vitro, Assay Code: SC2+, Evaluation Type: Evaluation B (Post-1980)
  mutagenic call: active; positive

## CNC(=O)Oc1ccccc1OC(C)C
[9]
  mutagenic call: no conclusion
Species/Cell Type: Bacillus subtilis (H17 vs M45T), Assay Type: Rec-assay, spot test, DNA effects (bacterial DNA repair), Assay Code: REX-, Evaluation Type: Evaluation A (Pre-1980)
  mutagenic call: inactive; negative
Species/Cell Type: Escherichia coli WP2, Assay Type: Tryptophan reverse gene mutation, Assay Code: WP2-, Evaluation Type: Evaluation A (Pre-1980)
  mutagenic call: inactive; negative
Species/Cell Type: Saccharomyces cerevisiae, Assay Type: Mitotic recombination or gene conversion, Assay Code: YEC-, Evaluation Type: Evaluation A (Pre-1980)
  mutagenic call: inactive; negative

## Cc1cc2nc3ccc(N(C)C)cc3nc2cc1N
Species/Cell Type: Drosophila melanogaster, Assay Type: Sex-linked recessive lethal gene mutation, Assay Code: SRLT, Evaluation Type: Evaluation A (Pre-1980)
  mutagenic call: no conclusion
[10]
  mutagenic call: no conclusion
[7]
  mutagenic call: inactive; negative
[11]
  mutagenic call: active; positive

## Cc1cc(C)[o+]c(C)c1
Species/Cell Type: Allium cepa, Assay Type: Chromosome aberrations, Assay Code: ALC+, Evaluation Type: Evaluation A (Pre-1980)
  mutagenic call: active; positive

## CCCCCCC(=O)N(C)N=O
[8]
  mutagenic call: active; positive

## c1ccc2c3c(ccc2c1)Cc1c(ccc2ccccc12)C3
[11]
  mutagenic call: active; positive

## COc1ccc(C(=O)/C(Br)=C/C(=O)O)cc1
Species/Cell Type: Human bone marrow, Assay Type: Chromosome aberrations in vivo, Assay Code: CY5+, Evaluation Type: Evaluation A (Pre-1980)
  mutagenic call: active; positive
Species/Cell Type: Nonhuman bone marrow, Assay Type: Chromosome aberrations, in vivo, Assay Code: CY#+D, Dose Response: With dose response, Evaluation Type: Evaluation A (Pre-1980)
  mutagenic call: active; positive

## Cc1ccc2ccc3c4ccccc4cc4ccc1c2c43
[5]
  mutagenic call: active; positive

## CC(=O)O/C=C/Cc1ccc2c(c1)OCO2
[2]
  mutagenic call: active; positive

## CCC1CCCCN1CCNc1ccc(CO)c2sc3ccccc3c(=O)c12 (configuration not stated)
Species/Cell Type: Mouse lymphoma (L5178Y) cells, Assay Type: Forward gene mutation at the thymidine kinase (TK) locus, chromosome aberrations, Assay Code: L51+, Evaluation Type: Evaluation A (Pre-1980)
  mutagenic call: active; positive
